One data set deals with HCT116. Put plainly: In vitro cytotoxicity measured by the cell colony formation assay. Type of data set: cell-based. Conditions: read-out: IN VITRO ID 50 (nm) HCT116. As for the experimental part: Four hundred cells (HCT116) were plated in 60 mm Petri dishes containing 2.7 mL of medium (modified McCoy's 5a medium containing 10% fetal bovine serum and 100 units/mL penicillin and 100 µg/mL streptomycin). The cells were incubated in a CO2 incubator at 37° C. for 5 h for attachment to the bottom of Petri dishes. The compounds identified in Example 2 were made up fresh in medium at ten times the final concentration, and then 0.3 mL of this stock solution was added to the 2.7 mL of medium in the dish. The cells were then incubated with drugs for 72 h at 37° C. At the end of incubation the drug-containing media were decanted, the dishes were rinsed with 4 mL of Hank's Balance Salt Solution (HBSS), 5 mL of fresh medium was added, and the dishes were returned to the incubator for colony formation. The cell colonies were counted using a colony counter after incubation for 7 days.

[1] abbreviates: HCT116 cells, drug concentration producing 50% inhibition of colony formation, 72 h with drug at 37° C., colonies counted after 7 days.

The structures appear in SMILES notation. Where two headings read alike, the source gives them in different places.

As usually defined, the melting point is the temperature of the solid-liquid transition. Regarding `COC(=O)O[C@H]1C[C@H]2OC[C@@]2(OC(C)=O)C2[C@H](OC(=O)c3ccccc3)[C@]3(O)C[C@H](OC(=O)[C@H](O)[C@@H](NC(=O)OC(C)(C)C)c4cccs4)C(C)=C([C@@H](O)C(=O)[C@@]21C)C3(C)C` (stereo partly shown) [Compound 4262, 3′-Desphenyl-3′-(2-thienyl)-7-methoxycarbonyl taxotere], the melting point is 142.5 to 143 °C. Moreover, in the data set on HCT116 (Homo sapiens, HCT-116), the IC50 is less than 1 nM.
Regarding `CCC(C)(C)OC(=O)N[C@@H](c1ccco1)[C@@H](O)C(=O)O[C@H]1C[C@@]2(O)[C@@H](OC(=O)c3ccccc3)C3[C@](C)(C(=O)[C@H](O)C(=C1C)C2(C)C)[C@@H](OC(=O)OCc1ccccc1)C[C@H]1OC[C@@]31OC(C)=O` (stereo partly shown) [Compound 6246], the IC50 with HCT116 (setting [1]) is less than 1 nM.
Same read-out and setting: with `C/C=C/C(=O)N[C@@H](c1cccs1)[C@@H](O)C(=O)O[C@H]1C[C@@]2(O)[C@@H](OC(=O)c3ccccc3)C3[C@](C)(C(=O)[C@H](O)C(=C1C)C2(C)C)[C@@H](OC(=O)OCc1ccccc1)C[C@H]1OC[C@@]31OC(C)=O` (stereo partly shown) [Compound 6566] the figure was less than 10 nM.

Values taken from patent US7226944B2, “Taxanes having a C7 carbonate substituent” (FSU Research Foundation, Inc., priority 2000, dated 2007).
